Type in all cases: functional
One assay concerns CCRF-CEM. Briefly: Cytotoxicity against human CCRF-CEM cells assessed as cell growth at 10^-5 M after 48 hrs by SRB assay. Particulars: read-out: Activity.
The nature of assay [1]: Cytotoxicity against human UO31 cells assessed as cell growth at 10^-5 M after 48 hrs by SRB assay. Conditions: UO-31, 48 h, read-out: Activity. On the technique in general: In SRB staining, fixed cells bind dye roughly in proportion to their protein.
For another assay, the system named is HCT-15. In words: Cytotoxicity against human HCT15 cells assessed as cell growth at 10^-5 M after 48 hrs by SRB assay. Conditions: HCT-15, 48 h, read-out: Activity.
The test system of another assay is SNB-75. In words: Cytotoxicity against human SNB75 cells assessed as cell growth at 10^-5 M after 48 hrs by SRB assay. Particulars: SNB-75, 48 h, read-out: Activity.
Another assay concerns SF-539. In words: Cytotoxicity against human SF539 cells assessed as cell growth at 10^-5 M after 48 hrs by SRB assay. Particulars: SF-539, 48 h, read-out: Activity.
Another assay concerns SK-MEL-28. In words: Cytotoxicity against human SK-MEL-28 cells assessed as cell growth at 10^-5 M after 48 hrs by SRB assay. Conditions: SK-MEL-28, 48 h, read-out: Activity.
The test system of the next assay is MOLT-4. Briefly: Cytotoxicity against human MOLT4 cells assessed as cell growth at 10^-5 M after 48 hrs by SRB assay. Conditions: MOLT-4, 48 h, read-out: Activity.
The next assay has as its system M14. Briefly: Cytotoxicity against human M14 cells assessed as cell growth at 10^-5 M after 48 hrs by SRB assay. Conditions: M14, 48 h, read-out: Activity.
In another assay the test system is A549. In words: Cytotoxicity against human A549 cells assessed as cell growth at 10^-5 M after 48 hrs by SRB assay. Particulars: A549, 48 h, read-out: Activity.
The next assay concerns PC-3. In words: Cytotoxicity against human PC3 cells assessed as cell growth at 10^-5 M after 48 hrs by SRB assay. Particulars: PC-3, 48 h, read-out: Activity.
Another assay concerns RPMI-8226. In words: Cytotoxicity against human RPMI8226 cells assessed as growth inhibition at 10 uM after 48 hrs by SRB assay. Particulars: RPMI-8226, 48 h, read-out: GI.
The next assay concerns NCI-H460. Briefly: Cytotoxicity against human NCI-H460 cells assessed as cell growth at 10^-5 M after 48 hrs by SRB assay. Particulars: NCI-H460, 48 h, read-out: Activity.
A short description of assay [2]: Cytotoxicity against human OVCAR5 cells assessed as cell growth at 10^-5 M after 48 hrs by SRB assay. Particulars: OVCAR-5, 48 h, read-out: Activity.
The subject of the next assay is OVCAR-8. Briefly: Cytotoxicity against human OVCAR8 cells assessed as cell growth at 10^-5 M after 48 hrs by SRB assay. Conditions: OVCAR-8, 48 h, read-out: Activity.
For a further assay, the system named is K562. Briefly: Cytotoxicity against human K562 cells assessed as cell growth at 10^-5 M after 48 hrs by SRB assay. Conditions: K562, 48 h, read-out: Activity.
The subject of a further assay is T47D. In words: Cytotoxicity against human T47D cells assessed as cell growth at 10^-5 M after 48 hrs by SRB assay. Conditions: read-out: Activity.
In another assay the test system is SR. Briefly: Cytotoxicity against human SR cells assessed as cell growth at 10^-5 M after 48 hrs by SRB assay. Conditions: read-out: Activity.
A further assay has as its system SK-MEL-5. Briefly: Cytotoxicity against human SK-MEL-5 cells assessed as cell growth at 10^-5 M after 48 hrs by SRB assay. Conditions: SK-MEL-5, 48 h, read-out: Activity.
In the next assay the test system is U-251. Briefly: Cytotoxicity against human U251 cells assessed as cell growth at 10^-5 M after 48 hrs by SRB assay. Particulars: U-251, 48 h, read-out: Activity.
The next assay concerns IGROV-1. Briefly: Cytotoxicity against human IGROV1 cells assessed as cell growth at 10^-5 M after 48 hrs by SRB assay. Conditions: IGROV-1, 48 h, read-out: Activity.
The subject of the next assay is CAKI-1. In words: Cytotoxicity against human Caki1 cells assessed as cell growth at 10^-5 M after 48 hrs by SRB assay. Conditions: CAKI-1, 48 h, read-out: Activity.
In the next assay the test system is HL-60(TB). Briefly: Cytotoxicity against human HL-60(TB) cells assessed as cell growth at 10^-5 M after 48 hrs by SRB assay. Particulars: HL-60, 48 h, read-out: Activity.
The test system of another assay is SK-OV-3. Briefly: Cytotoxicity against human SKOV3 cells assessed as cell growth at 10^-5 M after 48 hrs by SRB assay. Particulars: SK-OV-3, 48 h, read-out: Activity.

Each structure is given as a SMILES string.

As to `C=CCn1c(C)nc2ccc(Nc3nc(Nc4ncccn4)nc4ccccc34)cc21`, the growth at 10 µM turned out to be 84.8% in the assay with CCRF-CEM; 82.1% in [1]; 111% with HCT-15; 78.8% in the assay on SNB-75; 103% with SF-539; 111% in the assay on SK-MEL-28. In addition, the growth at 10 µM is 97.2% with MOLT-4; 115% in the assay on M14; 90.3% in the assay on A549; 89.2% with PC-3; 97.8% with NCI-H460; 114% in assay [2]. For the same compound, the growth at 10 µM stood at 94.3% in the assay on OVCAR-8; 83% in the assay on K562; 55.8% with T47D; 121% with SR; 92.9% with SK-MEL-5; 89.8% in the assay with U-251. Further, the growth at 10 µM in the assay with IGROV-1 amounted to 84.1%; in the assay on CAKI-1, 75.6%; in the assay on HL-60(TB), 94%; in the assay on SK-OV-3 it was 104%. The inhibition of growth at 10 µM with RPMI-8226 was determined as 30%.

On to `C=CCn1c(C)nc2cc(Nc3nc(Nc4ccc5nc(C)n(CC=C)c5c4)nc4ccccc34)ccc21`, for which the growth at 10 µM worked out at 94.8% in the assay on CCRF-CEM; 89.3% in [1]; 107% in the assay on HCT-15; 90.8% with SNB-75; 98.6% with SF-539; 106% in the assay on SK-MEL-28. Also, the growth at 10 µM with MOLT-4 worked out at 101%; with M14, 109%; in the assay on A549, 96.3%; in the assay with PC-3 it was 95.8%; in the assay with NCI-H460, 117%; in assay [2] it was 107%. The growth at 10 µM in the assay on OVCAR-8 turned out to be 98.9%; with K562, 102%; with T47D it was 96%; in the assay with SR, 106%; in the assay with SK-MEL-5 it was 99.7%; in the assay with U-251, 94.4%. Further, the growth at 10 µM in the assay on IGROV-1 was determined as 102%; in the assay on CAKI-1, 101%; in the assay with HL-60(TB) it was 84%; in the assay on SK-OV-3 it was 104%.

For `C=CCn1c(C)nc2ccc(Nc3nc(NCCO)nc4ccccc34)cc21`, the growth at 10 µM in the assay with CCRF-CEM was 88.5%; in [1], 92.6%; in the assay with HCT-15, 113%; in the assay on SNB-75 it was 92.5%; in the assay with SF-539, 104%; in the assay with SK-MEL-28, 99.3%. Further, the growth at 10 µM in the assay with MOLT-4 was found to be 96.7%; in the assay with M14, 111%; in the assay with A549 it was 99.9%; with PC-3, 93.8%; in the assay on NCI-H460, 103%; in assay [2] it was 107%. Moreover, the growth at 10 µM was 99% in the assay with OVCAR-8; 92.2% in the assay with K562; 95.8% with T47D; 104% in the assay with SR; 96.5% in the assay on SK-MEL-5; 98.5% with U-251. Also, the growth at 10 µM in the assay on IGROV-1 turned out to be 90.1%; in the assay on CAKI-1 it was 99%; in the assay on HL-60(TB) it was 114%; with SK-OV-3 it was 109%.

With `C=CCn1c(C)nc2ccc(Nc3nc(Sc4ccc(N)cc4)nc4ccccc34)cc21`, the growth at 10 µM with CCRF-CEM was determined as 65.5%; in assay [1], 89.5%; in the assay with HCT-15, 96.5%; with SNB-75, 98.2%; with SF-539, 108%; in the assay with SK-MEL-28, 104%. Also, the growth at 10 µM in the assay with MOLT-4 is 88.2%; in the assay with M14 it was 109%; in the assay on A549 it was 89.8%; in the assay on PC-3 it was 81.1%; in the assay on NCI-H460 it was 104%; in assay [2], 118%. The growth at 10 µM with OVCAR-8 stood at 63.7%; in the assay on K562, 92.5%; in the assay on T47D it was 71.7%; in the assay with SR, 90.8%; in the assay with SK-MEL-5, 84.1%; with U-251 it was 91.3%. The growth at 10 µM with IGROV-1 is 102%; in the assay with CAKI-1, 90.5%; in the assay on HL-60(TB), 98.8%; with SK-OV-3, 124%. For the same compound, in the assay on RPMI-8226, the inhibition of growth at 10 µM amounted to 40%.

On to `C=CCn1c(C)nc2cc(Nc3nc(NCCO)nc4ccccc34)ccc21`, for which the growth at 10 µM in the assay on CCRF-CEM is 81.9%; in [1], 72.4%; in the assay on HCT-15, 105%; with SNB-75, 76.4%; in the assay with SF-539 it was 94.8%; with SK-MEL-28, 101%. Further, the growth at 10 µM in the assay on MOLT-4 worked out at 56.7%; in the assay with M14, 93.3%; in the assay on A549 it was 92.3%; with PC-3 it was 69.2%; with NCI-H460, 96%; in assay [2], 92.2%. Moreover, the growth at 10 µM was determined as 73.6% with OVCAR-8; 64.1% in the assay on K562; 69% in the assay on T47D; 68.8% with SR; 75.4% in the assay with SK-MEL-5; 90.9% with U-251. The growth at 10 µM stood at 95.3% with IGROV-1, 93% with CAKI-1, 93.8% in the assay on HL-60(TB) and 103% with SK-OV-3. Further, the inhibition of growth at 10 µM with RPMI-8226 worked out at 30%.

Source of the values: ChEMBL document CHEMBL3112450, “Synthesis and in vitro antitumor evaluation of primary amine substituted quinazoline linked benzimidazole” (Bioorg Med Chem Lett, 2014).
